Laboratory results from article PMC2254147, “Novel Triazine JPC-2067-B Inhibits Toxoplasma gondii In Vitro and In Vivo” (PLoS Neglected Tropical Diseases, 2008).

Target: T1, TgDHFR (Toxoplasma gondii, UniProt Q07422)
T1 construct: DHFR from T. gondii was isolated directly from RH strain T. gondii grown in culture; endogenous in cells; host or cells: RH strain T. gondii grown on CHO/dhfr- cells
T1 sequence (Q07422 1-610): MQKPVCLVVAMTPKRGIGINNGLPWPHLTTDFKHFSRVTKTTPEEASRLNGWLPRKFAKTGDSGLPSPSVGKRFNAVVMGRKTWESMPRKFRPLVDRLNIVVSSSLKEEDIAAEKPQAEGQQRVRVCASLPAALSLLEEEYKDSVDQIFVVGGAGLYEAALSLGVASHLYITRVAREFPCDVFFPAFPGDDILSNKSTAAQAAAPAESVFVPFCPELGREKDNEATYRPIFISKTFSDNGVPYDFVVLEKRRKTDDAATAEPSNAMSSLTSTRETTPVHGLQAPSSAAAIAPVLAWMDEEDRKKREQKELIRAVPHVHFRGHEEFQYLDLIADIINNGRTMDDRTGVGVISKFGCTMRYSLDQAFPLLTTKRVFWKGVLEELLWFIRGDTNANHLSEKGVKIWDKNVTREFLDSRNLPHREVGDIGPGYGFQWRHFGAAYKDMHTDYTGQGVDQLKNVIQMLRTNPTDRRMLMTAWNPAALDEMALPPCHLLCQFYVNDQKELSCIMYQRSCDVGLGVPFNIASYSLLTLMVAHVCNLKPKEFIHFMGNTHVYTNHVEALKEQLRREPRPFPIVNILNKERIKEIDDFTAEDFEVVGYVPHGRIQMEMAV
Experiment: biochemical
Assay type: biochemical
Settings: 37°C
Experimental: DHFR from Pneumocystis carinii was produced as the recombinant enzyme expressed in Escherichia coli. […] Organisms were introduced into a confluent monolayer and harvested when the mammalian cells were lysed. The 100,000× g supernate was stored in liquid nitrogen.
The spectrophotometric assay for DHFR was optimized for temperature and concentration of substrate and cofactor for each enzyme. […] The reaction was continuously recorded for 3 minutes. […] The low background activity in the absence of dihydrofolic acid was subtracted from all rates.
DHFR was assayed with several concentrations of inhibitor to produce rates ranging from 1 to 90% of the uninhibited rate. At least three concentrations were required for calculation; most curves contained five concentrations.

Structure (SMILES): CC1(C)N=C(N)N=C(N)N1OCCCOc1ccc(OC(F)(F)F)cc1Cl [JPC-2067-B, 4,6-diamino-1,2-dihydro-2,2-dimethyl-1-(3′(2-chloro-, 4-trifluoromethoxyphenoxy)propyloxy)-1,3,5-triazine]
- IC50 ((95% confidence limits), read-out: Tg DHFR IC50): 6.5 nM
- Ratio of IC50 values rat liver DHFR/TgDHFR (lysates): 3.4
